Test results from patent US20180318311A1, “TRICYCLIC 2-QUINOLINONES AS ANTIBACTERIALS” (priority 2017, published 2018).
Converted amounts (≈) assume the structure as drawn. Counter-ions that a name gives are not always drawn. Like-named read-outs stand apart in the source and are kept apart here.

Legend:
Assay type in all cases: cell-based
[1] = test system: S. aureus ATCC 49951 (NB01006); test: MIC by broth microdilution, S. aureus NB01006; conditions: Staphylococcus aureus, ATCC49951, CAMHB, 35° C., 20 hours, read-out: Antibacterial activity (MIC) NB01006
How it was run: (§1)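 CAMHB, ~5×10^5 CFU/mL, 2-fold serial dilutions (final DMSO 1%), 35° C, ambient air, 20 h. Read OD600 plus visual check; MIC = lowest conc. with no visible growth, μg/mL.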

[2] = test system: P. aeruginosa NB52019, wild-type PAO1 strain; test: MIC by broth microdilution, P. aeruginosa NB52019; conditions: Pseudomonas aeruginosa, CAMHB, 35° C., 20 hours, read-out: Antibacterial activity (MIC) NB52019
How it was run: as §1

[3] = test system: S. aureus NB01006-AVR005, gyrA (S84L), grlA (580F) and grlB (E471K); test: microbe, parasite or virus in culture; conditions: Staphylococcus aureus, 20 h, read-out: Antibacterial activity (MIC) NB01006-AVR005
How it was run: as §1

[4] = test system: E. faecalis ATCC 29212 (NB04001); test: MIC by broth microdilution, E. faecalis NB04001; conditions: Enterococcus faecalis, ATCC29212, CAMHB, 35° C., 20 hours, read-out: Antibacterial activity (MIC) NB04001
How it was run: as §1

[5] = test system: E. coli ATCC 25922 (NB27001); test: MIC by broth microdilution, E. coli NB27001; conditions: Escherichia coli, ATCC25922, CAMHB, 35° C., 20 hours, read-out: Antibacterial activity (MIC) NB27001
How it was run: as §1

[6] = test system: S. aureus NB01080 fluoroquinolone-resistant clinical isolate; test: MIC by broth microdilution, S. aureus NB01080; conditions: Staphylococcus aureus, CAMHB, 35° C., 20 hours, read-out: Antibacterial activity (MIC) NB01080
How it was run: as §1

[7] = test system: S. pneumoniae ATCC 25922 (NB07001); test: MIC by broth microdilution, S. pneumoniae NB07001; conditions: Streptococcus pneumoniae, read-out: Antibacterial activity (MIC) NB07001
How it was run: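 MIC in μg/mL taken as the lowest concentration with no visible growth, checked by 600 nm reading after 20 h at 35°C, ambient air. Strains tested per CLSI microdilution in cation-adjusted Mueller-Hinton broth at about 5×10^5 CFU/mL, compounds as two-fold series, 1% DMSO final.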

[8] = ATCC25922, S. pneumoniae, CAMHB supplemented with 5% lysed horse blood, 35° C., 20 hours

| SMILES | MIC [1] | MIC [2] | MIC [3] | MIC [4] | MIC [5] | MIC [6] | MIC ([7]; ATCC25922, 20 h) | MIC [7, 8] |
| --- | --- | --- | --- | --- | --- | --- | --- | --- |
| NC1([C@@H]2CCN(c3c(F)cc4cc(C(=O)O)c(=O)n5c4c3OC[C@@H]5CF)C2)CC1 [Example 4, (R)-10-((R)-3-(1-aminocyclopropyl)pyrrolidin-1-yl)-9-fluoro-3-(fluoromethyl)-5-oxo-2,3-dihydro-5H-[1,4]oxazino[2,3,4-ij]quinoline-6-carboxylic acid] | < 1 µg/mL | > 32 µg/mL | 1 to 32 µg/mL (≈ 2.47 to 78.9 µM) | 1 to 32 µg/mL (≈ 2.47 to 78.9 µM) | 1 to 32 µg/mL (≈ 2.47 to 78.9 µM) | 1 to 32 µg/mL (≈ 2.47 to 78.9 µM) | < 1 µg/mL |  |
| C[C@H]1COc2c(N3CC[C@@H](C4(N)CC4)C3)c(F)cc3cc(C#N)c(=O)n1c23.O=C(O)C(F)(F)F [Example 5, (S)-10-((R)-3-(1-aminocyclopropyl)pyrrolidin-1-yl)-9-fluoro-3-methyl-5-oxo-2,3-dihydro-5H-[1,4]oxazino[2,3,4-ij]quinoline-6-carbonitrile trifluoroacetate salt] | < 1 µg/mL | 1 to 32 µg/mL | < 1 µg/mL | < 1 µg/mL | 1 to 32 µg/mL | < 1 µg/mL |  | < 1 µg/mL |
| C[C@H]1COc2c(N3CC4CC4(N)C3)c(F)cc3ccc(=O)n1c23 (stereo partly drawn) [Example 6.2, (3S)-10-(1-amino-3-azabicyclo[3.1.0]hexan-3-yl)-9-fluoro-3-methyl-2,3-dihydro-5H-[1,4]oxazino[2,3,4-ij]quinolin-5-one hydrochloride salt] | 1 to 32 µg/mL | > 32 µg/mL | 1 to 32 µg/mL | 1 to 32 µg/mL | 1 to 32 µg/mL | < 1 µg/mL | 1 to 32 µg/mL |  |
| C[C@H]1COc2c(N3CC[C@@H](C4(N)CC4)C3)c(F)cc3c(CN)cc(=O)n1c23 [Example 7.9, (S)-10-((R)-3-(1-aminocyclopropyl)pyrrolidin-1-yl)-7-(aminomethyl)-9-fluoro-3-methyl-2,3-dihydro-5H-[1,4]oxazino[2,3,4-ij]quinolin-5-one] | < 1 µg/mL | 1 to 32 µg/mL (≈ 2.68 to 85.9 µM) | < 1 µg/mL | < 1 µg/mL | < 1 µg/mL | 1 to 32 µg/mL (≈ 2.68 to 85.9 µM) | < 1 µg/mL |  |
| C[C@H]1COc2c(N3CC4CC4(N)C3)c(F)cc3c(CN)cc(=O)n1c23 (stereo partly drawn) [Example 7.10, (3S)-10-(1-amino-3-azabicyclo[3.1.0]hexan-3-yl)-7-(aminomethyl)-9-fluoro-3-methyl-2,3-dihydro-5H-[1,4]oxazino[2,3,4-ij]quinolin-5-one] | < 1 µg/mL | 1 to 32 µg/mL (≈ 2.9 to 92.9 µM) | < 1 µg/mL | 1 to 32 µg/mL (≈ 2.9 to 92.9 µM) | < 1 µg/mL | 1 to 32 µg/mL (≈ 2.9 to 92.9 µM) | < 1 µg/mL |  |
| CC1Cc2c(N3CC[C@@H]([C@H](C)N)C3)c(F)cc3cc(C(=O)O)c(=O)n1c23 (stereo partly drawn) [Example 9.2] | < 1 µg/mL | > 32 µg/mL | > 32 µg/mL | < 1 µg/mL | 1 to 32 µg/mL (≈ 2.78 to 89 µM) | 1 to 32 µg/mL (≈ 2.78 to 89 µM) | < 1 µg/mL |  |
| CC1Cc2c(N3CCNCC3)c(F)cc3cc(C(=O)O)c(=O)n1c23 (stereo not drawn) [Example 9.3, 8-fluoro-2-methyl-4-oxo-9-(piperazin-1-yl)-1,2-dihydro-4H-pyrrolo[3,2,1-ij]quinoline-5-carboxylic acid] | > 32 µg/mL | > 32 µg/mL | > 32 µg/mL | > 32 µg/mL | 1 to 32 µg/mL (≈ 3.02 to 96.6 µM) | > 32 µg/mL |  | > 32 µg/mL |
| C[C@H]1CNc2c(N3CC[C@@H](C4(N)CC4)C3)c(F)cc3cc(C(=O)O)c(=O)n1c23.Cl [Example 10, (S)-10-((R)-3-(1-aminocyclopropyl)pyrrolidin-1-yl)-9-fluoro-3-methyl-5-oxo-2,3-dihydro-1H,5H-pyrido[1,2,3-de]quinoxaline-6-carboxylic acid hydrochloride salt] | 1 to 32 µg/mL | > 32 µg/mL | > 32 µg/mL | 1 to 32 µg/mL | 1 to 32 µg/mL | 1 to 32 µg/mL |  | 1 to 32 µg/mL |
| C[C@H]1CSc2c(N3CC[C@@H](C4(N)CC4)C3)c(F)cc3cc(C(=O)O)c(=O)n1c23.Cl [Example 11, (S)-10-((R)-3-(1-aminocyclopropyl)pyrrolidin-1-yl)-9-fluoro-3-methyl-5-oxo-2,3-dihydro-5H-[1,4]thiazino[2,3,4-ij]quinoline-6-carboxylic acid hydrochloride salt] | < 1 µg/mL | > 32 µg/mL | 1 to 32 µg/mL | < 1 µg/mL | 1 to 32 µg/mL | < 1 µg/mL |  | < 1 µg/mL |
| C[C@H]1COc2c(N3CC[C@@H](C4(N)CC4)C3)cc(F)c3cc(C(=O)O)c(=O)n1c23 [Example 12.1, (S)-10-((R)-3-(1-aminocyclopropyl)pyrrolidin-1-yl)-8-fluoro-3-methyl-5-oxo-2,3-dihydro-5H-[1,4]oxazino[2,3,4-ij]quinoline-6-carboxylic acid trifluoroacetate salt] | < 1 µg/mL | 1 to 32 µg/mL | < 1 µg/mL | < 1 µg/mL | < 1 µg/mL | < 1 µg/mL | < 1 µg/mL |  |
| C[C@H](N)[C@@H]1CCN(c2cc(F)c3cc(C(=O)O)c(=O)n4c3c2OC[C@@H]4C)C1 [Example 12.2, (S)-10-((R)-3-((S)-1-aminoethyl)pyrrolidin-1-yl)-8-fluoro-3-methyl-5-oxo-2,3-dihydro-5H-[1,4]oxazino[2,3,4-ij]quinoline-6-carboxylic acid] | < 1 µg/mL | 1 to 32 µg/mL (≈ 2.66 to 85.2 µM) | 1 to 32 µg/mL (≈ 2.66 to 85.2 µM) | < 1 µg/mL | 1 to 32 µg/mL (≈ 2.66 to 85.2 µM) | 1 to 32 µg/mL (≈ 2.66 to 85.2 µM) | < 1 µg/mL |  |
| C[C@H](N)[C@@H]1CCN(c2ccc3cc(C(=O)O)c(=O)n4c3c2OC[C@@H]4C)C1 [Example 12.4, (S)-10-((R)-3-((S)-1-aminoethyl)pyrrolidin-1-yl)-3-methyl-5-oxo-2,3-dihydro-5H-[1,4]oxazino[2,3,4-ij]quinoline-6-carboxylic acid] | < 1 µg/mL | 1 to 32 µg/mL (≈ 2.8 to 89.5 µM) | 1 to 32 µg/mL (≈ 2.8 to 89.5 µM) | < 1 µg/mL | 1 to 32 µg/mL (≈ 2.8 to 89.5 µM) | 1 to 32 µg/mL (≈ 2.8 to 89.5 µM) | < 1 µg/mL |  |
| C[C@H]1COc2c(N3CCC(F)(CN)C3)ccc3cc(C(=O)O)c(=O)n1c23 (stereo partly drawn) [Example 12.5, (3S)-10-(3-(aminomethyl)-3-fluoropyrrolidin-1-yl)-3-methyl-5-oxo-2,3-dihydro-5H-[1,4]oxazino[2,3,4-ij]quinoline-6-carboxylic acid] | 1 to 32 µg/mL (≈ 2.77 to 88.6 µM) | > 32 µg/mL | > 32 µg/mL | 1 to 32 µg/mL (≈ 2.77 to 88.6 µM) | 1 to 32 µg/mL (≈ 2.77 to 88.6 µM) | 1 to 32 µg/mL (≈ 2.77 to 88.6 µM) | 1 to 32 µg/mL (≈ 2.77 to 88.6 µM) |  |
| C[C@H]1COc2c(N3CC4CC4(N)C3)ccc3cc(C(=O)O)c(=O)n1c23 (stereo partly drawn) [Example 12.6, (3S)-10-(1-amino-3-azabicyclo[3.1.0]hexan-3-yl)-3-methyl-5-oxo-2,3-dihydro-5H-[1,4]oxazino[2,3,4-ij]quinoline-6-carboxylic acid] | 1 to 32 µg/mL (≈ 2.93 to 93.7 µM) | > 32 µg/mL | > 32 µg/mL | 1 to 32 µg/mL (≈ 2.93 to 93.7 µM) | 1 to 32 µg/mL (≈ 2.93 to 93.7 µM) | 1 to 32 µg/mL (≈ 2.93 to 93.7 µM) | 1 to 32 µg/mL (≈ 2.93 to 93.7 µM) |  |
| C[C@H]1COc2c(N3CC[C@@H](C4(N)CC4)C3)c(F)c(F)c3cc(C(=O)O)c(=O)n1c23 [Example 13.1, (S)-10-((R)-3-(1-aminocyclopropyl)pyrrolidin-1-yl)-8,9-difluoro-3-methyl-5-oxo-2,3-dihydro-5H-[1,4]oxazino[2,3,4-ij]quinoline-6-carboxylic acid hydrochloride salt] | < 1 µg/mL | 1 to 32 µg/mL | < 1 µg/mL | < 1 µg/mL | < 1 µg/mL | < 1 µg/mL | < 1 µg/mL |  |
| C[C@H](N)[C@@H]1CCN(c2c(F)c(F)c3cc(C(=O)O)c(=O)n4c3c2OC[C@@H]4C)C1 [Example 13.2, (S)-10-((R)-3-((S)-1-aminoethyl)pyrrolidin-1-yl)-8,9-difluoro-3-methyl-5-oxo-2,3-dihydro-5H-[1,4]oxazino[2,3,4-ij]quinoline-6-carboxylic acid] | < 1 µg/mL | 1 to 32 µg/mL (≈ 2.54 to 81.3 µM) | < 1 µg/mL | < 1 µg/mL | < 1 µg/mL | < 1 µg/mL | < 1 µg/mL |  |
| C[C@H]1COc2c(N3CCN(C)CC3)c(F)c(F)c3cc(C(=O)O)c(=O)n1c23 [Example 13.3] | 1 to 32 µg/mL (≈ 2.64 to 84.4 µM) | > 32 µg/mL | > 32 µg/mL | > 32 µg/mL | 1 to 32 µg/mL (≈ 2.64 to 84.4 µM) | > 32 µg/mL |  | > 32 µg/mL |
| C[C@H]1COc2c(N3CCC(F)(CN)C3)c(F)c(F)c3cc(C(=O)O)c(=O)n1c23 (stereo partly drawn) [Example 13.5, (3S)-10-(3-(aminomethyl)-3-fluoropyrrolidin-1-yl)-8,9-difluoro-3-methyl-5-oxo-2,3-dihydro-5H-[1,4]oxazino[2,3,4-ij]quinoline-6-carboxylic acid] | < 1 µg/mL | > 32 µg/mL | 1 to 32 µg/mL (≈ 2.52 to 80.5 µM) | < 1 µg/mL | 1 to 32 µg/mL (≈ 2.52 to 80.5 µM) | 1 to 32 µg/mL (≈ 2.52 to 80.5 µM) | < 1 µg/mL |  |
